In article PMC10999543, “Identification of kinase modulators as host-directed therapeutics against intracellular methicillin-resistant Staphylococcus aureus” (Frontiers in Cellular and Infection Microbiology, 2024):
Read-outs that look alike come from different tables or passages of the source.

How the values were obtained:
[1] = tested on: intracellular MRSA; assay type: cell-based, Staphylococcus aureus; details: for %GFP+ rep 1 / z-scoreMRSA+ rep 1: replicate 1; for %GFP+ rep 2 / z-scoreMRSA+ rep 2: replicate 2; for %GFP+ rep 3 / z-scoreMRSA+ rep 3: replicate 3; for z-scoreMRSA+ mean: mean of 3 replicates
How it was run: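 HeLa cells were infected with GFP-expressing MRSA (mean MOI 6.8) for 1 h, treated with 30 µg/ml gentamicin for 15 min, then incubated overnight at 37°C with kinase inhibitors and 5 µg/ml gentamicin. Flow cytometry gave % GFP-positive cells, with cell count as viability. Hits were z-score ≤ -2 (infection) and ≥ -3 (count) versus DMSO.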

[2] = tested on: HeLa cells; assay: Compound screen by flow cytometry: HeLa cell count as surrogate readout of cell viability (z-scoreHeLa); assay type: cell-based, human; details: for cell count rep 1 / z-scoreHeLa rep 1: replicate 1; for cell count rep 2 / z-scoreHeLa rep 2: replicate 2; for cell count rep 3 / z-scoreHeLa rep 3: replicate 3; for z-scoreHeLa mean: mean of 3 replicates
How it was run: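 The viability surrogate was the count of fixed HeLa cells by flow cytometry, converted to z-scores against DMSO controls with values deviating two-fold excluded. Before counting, cells had been infected with MRSA for 1 h and cleared of extracellular bacteria with gentamicin. They were then exposed overnight to kinase inhibitors in triplicate.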

[3] = PKIS compound screen raw data, MRSA-infected HeLa cells
[4] = PKIS compound screen, MRSA-infected HeLa cells
[5] = PKIS compound screen, Yes/No call (effect without cell death)
[6] = PKIS compound screen, Yes/No call on z-scoreMRSA+
[7] = PKIS compound screen raw data, HeLa cell count
[8] = PKIS compound screen, HeLa cell count
[9] = PKIS compound screen, Yes/No call on z-scoreHeLa
[10] = PKIS compound screen, Yes/No call
[11] = PKIS compounds raw data, MRSA-infected HeLa cells
[12] = PKIS compounds raw data, HeLa cell count
[13] = Yes/No: effect without cell death
[14] = compound screen, MRSA-infected HeLa cells
[15] = compound screen, HeLa cell count

| Compound | %GFP+ rep 1 [1, 3] [%] | %GFP+ rep 2 [1, 3] [%] | %GFP+ rep 3 [1, 3] [%] | z-scoreMRSA+ mean [1, 4] | z-scoreMRSA+ rep 1 [1, 4] | z-scoreMRSA+ rep 2 [1, 4] | z-scoreMRSA+ rep 3 [1, 4] | hit [1, 5] | effect [1, 6] | cell count rep 1 [2, 7] | cell count rep 2 [2, 7] | cell count rep 3 [2, 7] | z-scoreHeLa mean [2, 8] | z-scoreHeLa rep 1 [2, 8] | z-scoreHeLa rep 2 [2, 8] | z-scoreHeLa rep 3 [2, 8] | cell death [2, 9] | %GFP+ rep 1 [1, 11] [%] | %GFP+ rep 2 [1, 11] [%] | %GFP+ rep 3 [1, 11] [%] | further results |
| --- | --- | --- | --- | --- | --- | --- | --- | --- | --- | --- | --- | --- | --- | --- | --- | --- | --- | --- | --- | --- | --- |
| CS(=O)(=O)CCNCc1cc(-c2cc3c(Nc4ccc(OCc5cccc(F)c5)c(Cl)c4)ncnc3s2)cs1 [GSK300014A] | 19.5 | 21.9 | 21.6 | 0.70 | 0.52 | 1.02 | 0.55 | No | No | 28943 | 38150 | 46044 | 0.95 | 1.34 | 0.63 | 0.88 | No | – | – | – | – |
| Cc1ccc(O)cc1Nc1ccnc2cc(-c3ccc(CN4CCCCC4)o3)ccc12 [GW557777X] | 13.1 | 14.2 | 14.8 | -1.44 | -1.51 | -1.30 | -1.52 | No | No | 30186 | 37597 | 49690 | 1.17 | 1.53 | 0.52 | 1.46 | No | – | – | – | – |
| O=C(NC1CCN(c2ccnc(Nc3ccc(F)cc3)n2)C1)c1cc2ccccc2s1 (centres unmarked) [GSK1379716A] | 18.9 | 18.2 | 21.3 | -0.09 | 0.0322 | -0.33 | 0.0175 | No | No | 35239 | 17173 | 16326 | -0.35 | 0.85 | -1.39 | -0.51 | No | 28.4 | 27.5 | 26.9 | effect [1, 10]: No; z-scoreMRSA+ mean ([1]; PKIS compound screen): 0.16; z-scoreMRSA+ rep 1 ([1]; PKIS compound screen): 0.26; z-scoreMRSA+ rep 2 ([1]; PKIS compound screen): 0.28; z-scoreMRSA+ rep 3 ([1]; PKIS compound screen): -0.07; cell death [2, 10]: No; z-scoreHeLa mean ([2]; PKIS compound screen): -0.43; z-scoreHeLa rep 1 ([2]; PKIS compound screen): -0.58; z-scoreHeLa rep 2 ([2]; PKIS compound screen): -1.00; z-scoreHeLa rep 3 ([2]; PKIS compound screen): 0.28; cell count rep 1 [2, 12]: 5074; cell count rep 2 [2, 12]: 4507; cell count rep 3 [2, 12]: 6035 |
| CS(=O)(=O)CCNCc1nc(-c2ccc3ncnc(Nc4ccc(OCc5cccc(F)c5)c(Cl)c4)c3c2)cs1 [GW583340C] | – | – | – | – | – | – | – | – | – | – | – | – | – | – | – | – | – | 17.5 | 15.0 | 17.3 | effect ([1]; Yes/No call from z-scoreMRSA+): No; hit [1, 13]: No; z-scoreMRSA+ mean [1, 14]: -1.71; z-scoreMRSA+ rep 1 [1, 14]: -1.81; z-scoreMRSA+ rep 2 [1, 14]: -1.85; z-scoreMRSA+ rep 3 [1, 14]: -1.47; cell count rep 1 [2, 12]: 5969; cell count rep 2 [2, 12]: 5507; cell count rep 3 [2, 12]: 7162; cell death ([2]; Yes/No call from z-scoreHeLa): No; z-scoreHeLa mean [2, 15]: 1.10; z-scoreHeLa rep 1 [2, 15]: 1.17; z-scoreHeLa rep 2 [2, 15]: 0.93; z-scoreHeLa rep 3 [2, 15]: 1.22 |
| Cc1nn2c(=O)cc(N3CCOCC3)nc2n1Cc1cccc(Cl)c1Cl [GSK2342769A] | 10.7 | 10.7 | 15.0 | -2.08 | -2.16 | -2.38 | -1.70 | No and Yes | Yes | 31673 | 24146 | 21902 | 0.21 | 0.25 | -0.19 | 0.58 | No | 23.6 | 23.2 | 24.3 | effect [1, 10]: No; z-scoreMRSA+ mean ([1]; PKIS compound screen): -0.59; z-scoreMRSA+ rep 1 ([1]; PKIS compound screen): -0.67; z-scoreMRSA+ rep 2 ([1]; PKIS compound screen): -0.54; z-scoreMRSA+ rep 3 ([1]; PKIS compound screen): -0.55; cell death [2, 10]: No; z-scoreHeLa mean ([2]; PKIS compound screen): -1.49; z-scoreHeLa rep 1 ([2]; PKIS compound screen): -1.68; z-scoreHeLa rep 2 ([2]; PKIS compound screen): -1.59; z-scoreHeLa rep 3 ([2]; PKIS compound screen): -1.19; cell count rep 1 [2, 12]: 3246; cell count rep 2 [2, 12]: 3614; cell count rep 3 [2, 12]: 3721 |
| CCNC(=O)O[C@H]1CN[C@H](C#Cc2cc3ncnc(Nc4ccc(OCc5cccc(F)c5)c(Cl)c4)c3s2)C1 [GSK192082A] | – | – | – | – | – | – | – | – | – | – | – | – | – | – | – | – | – | 6.9 | 7.5 | 8.8 | effect ([1]; Yes/No call from z-scoreMRSA+): Yes; hit [1, 13]: Yes; z-scoreMRSA+ mean [1, 14]: -2.04; z-scoreMRSA+ rep 1 [1, 14]: -2.01; z-scoreMRSA+ rep 2 [1, 14]: -2.02; z-scoreMRSA+ rep 3 [1, 14]: -2.09; cell count rep 1 [2, 12]: 3041; cell count rep 2 [2, 12]: 2947; cell count rep 3 [2, 12]: 5819; cell death ([2]; Yes/No call from z-scoreHeLa): No; z-scoreHeLa mean [2, 15]: -1.04; z-scoreHeLa rep 1 [2, 15]: -1.57; z-scoreHeLa rep 2 [2, 15]: -1.00; z-scoreHeLa rep 3 [2, 15]: -0.55 |
| c1ccc(Oc2ccc(Nc3ccnc4cc(-c5ccc(CNCCN6CCOCC6)o5)ccc34)cc2)nc1 [GW567145X] | 20.5 | 21.2 | 22.8 | 0.46 | 0.46 | 0.49 | 0.43 | No | No | 29321 | 19879 | 15455 | -0.58 | -0.15 | -0.93 | -0.68 | No | 25.1 | 24.1 | 25.1 | effect [1, 10]: No; z-scoreMRSA+ mean ([1]; PKIS compound screen): -0.39; z-scoreMRSA+ rep 1 ([1]; PKIS compound screen): -0.38; z-scoreMRSA+ rep 2 ([1]; PKIS compound screen): -0.37; z-scoreMRSA+ rep 3 ([1]; PKIS compound screen): -0.40; cell death [2, 10]: No; z-scoreHeLa mean ([2]; PKIS compound screen): 0.19; z-scoreHeLa rep 1 ([2]; PKIS compound screen): 0.019; z-scoreHeLa rep 2 ([2]; PKIS compound screen): 0.89; z-scoreHeLa rep 3 ([2]; PKIS compound screen): -0.32; cell count rep 1 [2, 12]: 6078; cell count rep 2 [2, 12]: 7342; cell count rep 3 [2, 12]: 5085 |
| Fc1cc(Cl)ccc1Nc1ccnc2cc(-c3ccc(CN4CCSCC4)o3)ccc12 [GW560106X] | 16.0 | 19.0 | 19.0 | -0.23 | -0.59 | 0.14 | -0.24 | No | No | 31348 | 29129 | 34674 | -0.095 | 1.70 | -1.06 | -0.93 | No | – | – | – | – |
| O=c1cc(N2CCOCC2)nc2n(Cc3cccc(Cl)c3)ccn12 [GSK2296823A] | 13.9 | 14.9 | 15.7 | – | – | – | – | – | – | 36512 | 34515 | 25382 | – | – | – | – | – | – | – | – | effect ([1]; Yes/No call from z-scoreMRSA+): No; hit [1, 13]: No; z-scoreMRSA+ mean [1, 14]: -1.35; z-scoreMRSA+ rep 1 [1, 14]: -1.30; z-scoreMRSA+ rep 2 [1, 14]: -1.23; z-scoreMRSA+ rep 3 [1, 14]: -1.51; cell death ([2]; Yes/No call from z-scoreHeLa): No; z-scoreHeLa mean [2, 15]: 1.30; z-scoreHeLa rep 1 [2, 15]: 1.07; z-scoreHeLa rep 2 [2, 15]: 1.58; z-scoreHeLa rep 3 [2, 15]: 1.26 |
| Cc1cccc(-c2nc(Nc3ccc4[nH]ncc4c3)c3ccccc3n2)n1 [GW857175X] | – | – | – | – | – | – | – | – | – | – | – | – | – | – | – | – | – | 13.1 | 11.5 | 12.7 | effect ([1]; Yes/No call from z-scoreMRSA+): No; hit [1, 13]: No; z-scoreMRSA+ mean [1, 14]: -0.54; z-scoreMRSA+ rep 1 [1, 14]: -0.0227; z-scoreMRSA+ rep 2 [1, 14]: -0.67; z-scoreMRSA+ rep 3 [1, 14]: -0.94; cell count rep 1 [2, 12]: 2034; cell count rep 2 [2, 12]: 1268; cell count rep 3 [2, 12]: 3042; cell death ([2]; Yes/No call from z-scoreHeLa): No; z-scoreHeLa mean [2, 15]: -2.21; z-scoreHeLa rep 1 [2, 15]: -2.48; z-scoreHeLa rep 2 [2, 15]: -2.27; z-scoreHeLa rep 3 [2, 15]: -1.88 |
